Earlier results in US11607623B2, “Dynamic interface system and its application in supercritical fluid extraction and chromatography” (CORNERSTONE TECHNOLOGIES LLC, priority 2019, dated 2023).

Row | Structure (SMILES) | molar solubility in SC-CO2, course across temperature (220-240 bar, across the 42-72° C. temperature ranges) | solubility in SC-CO2 at 54° C. relative to 41° C. or 61° C. (lower pressures 160-180 bar) | solubility in SC-CO2, change with temperature (pressures of 220-240 bar, temperature raised from 42° C. to 72° C.)
1 | CCCCCc1cc(O)c2c(c1)OC(C)(C)c1ccc(C)cc1-2 [CBN, cannabinol] | inverted-U curve | two-fold greater | 
2 | CCCCCc1cc(O)c2c(c1)OC(C)(C)[C@@H]1CCC(C)=C[C@@H]21 [THC, delta-9-tetrahydrocannabinol] |  |  | two-fold increase
